Results as given in patent US10221173B2, “Chemical compounds” (AstraZeneca AB, priority 2017, dated 2019).
In brackets after ≈: the same amount, converted by molar mass.

Assays:
ER = ER (Homo sapiens (Human), UniProt P03372); conditions: 500 mg monthly dose; cited from earlier work
[1] = biological target: recombinant human Estrogen Receptor alpha ligand binding domain (ER alpha-LBD (GST)) (Homo sapiens (Human), UniProt P03372); assay: ERα binding assay (LanthaScreen TR-FRET competition)
[2] = Thermodynamic solubility (shake-flask); type: physicochemical; conditions: aqueous phosphate buffer, 25 °C, pH 7.4, aqueous buffer, thermodynamic from solid, phosphate buffer pH 7.4, 24 hours
Procedure: The thermodynamic solubility of a research compound is measured under standard conditions. It is a shake-flask approach that uses 10 mM DMSO solutions which are supplied from the Compound Managements liquid store and is a high throughput method. The dried compounds are equilibrated in an aqueous phosphate buffer (pH 7.4) for 24 hours at 25° C., the portion with the dissolved compound is then separated from the remains. The solutions are analyzed and quantified using UPLC/MS/MS, QC-samples are incorporated in each assay-run to ensure the quality of the assay.

[3] = Log D (shake flask, 1-octanol/aqueous buffer); type: physicochemical; conditions: 1-octanol/aqueous buffer, pH 7.4, pH 7.4
[4] = Human plasma protein binding (equilibrium dialysis); type: in vitro ADME
hERG potassium channel = hERG potassium channel (Homo sapiens (Human), UniProt Q12809)
hERG potassium channel, sequence (Q12809 whole entry): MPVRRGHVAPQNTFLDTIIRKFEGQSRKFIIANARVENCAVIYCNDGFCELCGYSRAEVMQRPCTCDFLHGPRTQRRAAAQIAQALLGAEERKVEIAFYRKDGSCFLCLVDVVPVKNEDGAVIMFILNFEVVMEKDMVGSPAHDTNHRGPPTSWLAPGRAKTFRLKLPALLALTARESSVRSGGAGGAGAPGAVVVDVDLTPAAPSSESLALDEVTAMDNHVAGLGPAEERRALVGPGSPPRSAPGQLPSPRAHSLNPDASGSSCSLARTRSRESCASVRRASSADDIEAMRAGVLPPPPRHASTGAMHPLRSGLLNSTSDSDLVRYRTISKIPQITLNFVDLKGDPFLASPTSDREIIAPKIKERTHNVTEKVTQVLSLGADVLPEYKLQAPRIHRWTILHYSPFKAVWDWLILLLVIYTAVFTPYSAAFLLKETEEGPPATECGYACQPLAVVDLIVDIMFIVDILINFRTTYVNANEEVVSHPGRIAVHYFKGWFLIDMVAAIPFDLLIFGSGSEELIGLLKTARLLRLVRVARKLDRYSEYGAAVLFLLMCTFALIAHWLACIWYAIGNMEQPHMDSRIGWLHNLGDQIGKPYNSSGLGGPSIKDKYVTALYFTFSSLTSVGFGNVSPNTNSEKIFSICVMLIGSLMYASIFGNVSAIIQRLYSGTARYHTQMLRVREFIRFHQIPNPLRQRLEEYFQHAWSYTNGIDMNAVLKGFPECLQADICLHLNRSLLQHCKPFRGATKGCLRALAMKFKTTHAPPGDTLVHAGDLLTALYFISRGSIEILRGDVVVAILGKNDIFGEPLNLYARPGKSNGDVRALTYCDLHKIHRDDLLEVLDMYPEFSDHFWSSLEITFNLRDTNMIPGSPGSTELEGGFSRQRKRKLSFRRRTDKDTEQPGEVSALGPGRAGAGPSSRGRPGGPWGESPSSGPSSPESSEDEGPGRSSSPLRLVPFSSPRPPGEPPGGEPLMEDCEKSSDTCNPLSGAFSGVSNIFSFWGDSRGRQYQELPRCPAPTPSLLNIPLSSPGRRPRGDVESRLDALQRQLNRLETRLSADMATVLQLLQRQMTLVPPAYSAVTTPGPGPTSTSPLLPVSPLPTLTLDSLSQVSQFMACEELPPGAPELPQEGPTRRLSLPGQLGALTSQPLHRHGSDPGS

[5] = biological target: T1, Estrogen Receptor (ERα) in MCF-7 cells (Homo sapiens (Human), UniProt P03372); assay: MCF-7 ER down-regulation assay (immuno-fluorescence); type: cell-based
T1 sequence (P03372 whole entry): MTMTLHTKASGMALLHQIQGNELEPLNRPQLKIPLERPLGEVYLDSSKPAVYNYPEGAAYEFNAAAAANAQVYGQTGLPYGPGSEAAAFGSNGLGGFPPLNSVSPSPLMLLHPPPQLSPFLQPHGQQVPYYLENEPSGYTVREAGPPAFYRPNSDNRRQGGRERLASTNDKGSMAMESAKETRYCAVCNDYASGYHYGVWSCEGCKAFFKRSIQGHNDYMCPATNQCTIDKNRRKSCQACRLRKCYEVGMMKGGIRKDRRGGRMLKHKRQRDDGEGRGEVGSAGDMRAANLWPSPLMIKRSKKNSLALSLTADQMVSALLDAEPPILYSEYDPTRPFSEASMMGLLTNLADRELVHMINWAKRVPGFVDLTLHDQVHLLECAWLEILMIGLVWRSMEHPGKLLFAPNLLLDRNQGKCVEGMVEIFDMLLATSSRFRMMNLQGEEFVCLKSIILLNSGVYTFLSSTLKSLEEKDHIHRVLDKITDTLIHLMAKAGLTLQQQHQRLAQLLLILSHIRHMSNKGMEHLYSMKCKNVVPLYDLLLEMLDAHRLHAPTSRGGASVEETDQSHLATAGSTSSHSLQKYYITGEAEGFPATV

[6] = biological target: estrogen receptor (ERα) in CAMA-1 cells (Homo sapiens (Human), UniProt P03372); assay: Western blotting assay, ER down-regulation in CAMA-1; type: cell-based; conditions: CAMA-1, 100 nM compound, 48 h, vs 100 nM fulvestrant
estrogen receptor (ERα) in CAMA-1 cells, sequence (P03372 whole entry): as above

[7] = biological target: T1, Estrogen Receptor (ERα) in MCF-7 cells; assay: Western blotting assay, ER down-regulation in MCF-7; type: cell-based; conditions: MCF-7, 100 nM compound, 48 h, vs 100 nM fulvestrant

recombinant human Estrogen Receptor alpha ligand binding domain (ER alpha-LBD (GST)), sequence (P03372 307-554): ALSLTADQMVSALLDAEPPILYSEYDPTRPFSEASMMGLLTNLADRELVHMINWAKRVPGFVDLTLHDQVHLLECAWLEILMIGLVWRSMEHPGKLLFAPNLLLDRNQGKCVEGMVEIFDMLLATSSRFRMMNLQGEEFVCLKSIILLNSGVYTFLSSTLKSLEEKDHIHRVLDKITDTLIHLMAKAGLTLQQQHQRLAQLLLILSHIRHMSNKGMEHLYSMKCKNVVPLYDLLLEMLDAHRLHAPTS
ER, sequence (P03372 whole entry, the tested form may be a part): as the sequence (P03372 whole entry) above

SMILES | turnover of the receptor in patient samples (ER) | IC50 [1] | solubility at 24 h [2] | logD [3] | Human plasma protein binding (% free) [4] | IC50 (hERG potassium channel) | IC50 [5] | CAMA1 Western % ER deg vs Fv [6] | MCF7 Western % ER deg vs Fv [7]
C[C@]12CC[C@@H]3c4ccc(O)cc4C[C@@H](CCCCCCCCC[S+]([O-])CCCC(F)(F)C(F)(F)F)[C@H]3[C@@H]1CC[C@@H]2O (stereo partly drawn) [Fulvestrant] | less than 50% |  |  |  |  |  |  |  | 
Cc1ccc2[nH]c3c(c2c1)C[C@@H](C)N(CC(F)(F)CO)[C@@H]3c1c(F)ccc(OCCNCCCF)c1F [Example 63, 3-((1R,3R)-1-(2,6-difluoro-3-(2-((3-fluoropropyl)amino)ethoxy)phenyl)-3,6-dimethyl-1,3,4,9-tetrahydro-2H-pyrido[3,4-b]indol-2-yl)-2,2-difluoropropan-1-ol] |  | 1.1 nM | 273 µM (≈ 143 µg/mL) | 3.1 | 0.97 % free | 4.7 µM | 0.32 nM | 85% | 94%
